Experimental data from ChEMBL document CHEMBL1201862, “PubChem BioAssay data set” (2004).
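Step 1: Grow cells in 96-well plates. Step 2: Expose to compound for 48 hours at 5 concentrations. Step 3: Interpolate endpoints linearly; if unreached, use highest concentration. Abbreviation: GI50, concentration required for 50% inhibition of growth.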 Activity calls are given as the source filed them. Rule as the data show it: active = GI50 up to about 1.1 µM and inactive = higher.

Key:
Test in all cases: NCI tumour cell line growth inhibition, 48 h
DLD-1 = tested on: DLD-1
DMS-114 = tested on: DMS-114
DMS-273 = tested on: DMS-273
HOP-18 = tested on: HOP-18
KM-20L2 = tested on: KM-20L2
LXFL 529 = tested on: LXFL 529
SNB-78 = tested on: SNB-78
XF498 = tested on: XF498
RXF 631 = tested on: RXF 631

Compound	GI50 (DLD-1)	GI50 (DMS-114)	GI50 (DMS-273)	GI50 (HOP-18)	GI50 (KM-20L2)	GI50 (LXFL 529)	GI50 (SNB-78)	GI50 (XF498)	GI50 (RXF 631)
CCCCCCC(O)CC[C@H]1CCC[C@@H](C)N1 (stereo partly specified)	> 100 µM (inactive)	> 31.6 µM (inactive)	> 100 µM (inactive)	> 100 µM (inactive)	> 10 µM (inactive)	> 100 µM (inactive)	> 100 µM (inactive)	–	–
CC(=O)Nc1ccc(C(=O)N2N=C(C)/C(=C\c3c(O)ccc4ccccc34)C2=O)cc1	30.4 µM (inactive)	54.2 µM (inactive)	> 100 µM (inactive)	83 µM (inactive)	–	–	> 100 µM (inactive)	28.9 µM (inactive)	–
O=S(=O)(N/N=C/c1ccc(/C=N/NS(=O)(=O)c2ccccc2)cc1)c1ccccc1	–	54.8 µM (inactive)	46.8 µM (inactive)	84.3 µM (inactive)	> 100 µM (inactive)	–	61.8 µM (inactive)	68.9 µM (inactive)	36.4 µM (inactive)
O=S1(=O)OCCOS(=O)(=O)C1Cc1ccccc1	43 µM (inactive)	38.2 µM (inactive)	45.4 µM (inactive)	23.5 µM (inactive)	43 µM (inactive)	–	> 100 µM (inactive)	19.2 µM (inactive)	–
CC1=NN(C(=O)Cc2ccccc2)C(=O)/C1=C\c1ccccc1O	> 100 µM (inactive)	> 100 µM (inactive)	–	–	> 100 µM (inactive)	> 100 µM (inactive)	> 100 µM (inactive)	> 100 µM (inactive)	–
CN1CCCc2nc3ccccc3n2C1	> 100 µM (inactive)	> 100 µM (inactive)	> 100 µM (inactive)	> 100 µM (inactive)	> 100 µM (inactive)	> 100 µM (inactive)	> 100 µM (inactive)	> 100 µM (inactive)	–
Cc1cccc(C)c1NC(=O)C(=O)C(C#N)c1ccccc1 (stereo unspecified)	> 100 µM (inactive)	> 100 µM (inactive)	> 100 µM (inactive)	> 100 µM (inactive)	> 100 µM (inactive)	> 100 µM (inactive)	> 100 µM (inactive)	> 100 µM (inactive)	–
Cn1cc(NC(=O)c2cc(NC(=O)CCCCCCCCCCC(=O)Nc3cc(C(=O)Nc4cc(C(=O)NCCC(=N)N)n(C)c4)n(C)c3)cn2C)cc1C(=O)NCCC(=N)N	27.9 µM (inactive)	–	28.2 µM (inactive)	15.2 µM (inactive)	27 µM (inactive)	16.9 µM (inactive)	46.7 µM (inactive)	> 100 µM (inactive)	–
N#C/C(=C\c1ccccc1Br)C(=O)c1ccccc1	–	97.1 µM (inactive)	26.8 µM (inactive)	–	> 87.3 µM (inactive)	12.3 µM (inactive)	6.67 µM (inactive)	> 50.2 µM (inactive)	> 100 µM (inactive)
CC1=CC(N2C(=O)C(C)=CC2O)NC1=O (stereo unspecified)	> 100 µM (inactive)	–	–	< 0.01 µM (active)	> 100 µM (inactive)	> 100 µM (inactive)	> 100 µM (inactive)	–	–
Cc1cc(N(CCC#N)CCC#N)ccc1/C=C1/CN(N2C(=O)/C(=C/c3ccc(N(CCC#N)CCC#N)cc3C)N=C2c2ccccc2)C(c2ccccc2)=N1	> 100 µM (inactive)	> 100 µM (inactive)	> 100 µM (inactive)	> 100 µM (inactive)	> 100 µM (inactive)	63.5 µM (inactive)	32.1 µM (inactive)	36 µM (inactive)	–
O=c1/c(=C/c2ccccc2O)sc2nc3ccccc3n12	29.9 µM (inactive)	19.7 µM (inactive)	82.4 µM (inactive)	–	84.1 µM (inactive)	31.3 µM (inactive)	43.2 µM (inactive)	–	43.7 µM (inactive)
COC(=O)C1CCc2nnc(-c3ccccc3)n21 (stereo unspecified)	> 100 µM (inactive)	> 100 µM (inactive)	> 10 µM (inactive)	–	> 100 µM (inactive)	> 100 µM (inactive)	> 100 µM (inactive)	> 100 µM (inactive)	–
CN1c2ccccc2N(C(=O)c2ccc(Cl)cc2)C(CC(=O)O)c2cccn21 (stereo unspecified)	> 100 µM (inactive)	> 100 µM (inactive)	> 100 µM (inactive)	–	> 100 µM (inactive)	> 100 µM (inactive)	> 100 µM (inactive)	> 100 µM (inactive)	–
COC(=O)C(=O)C(C(C)=O)C(=O)NCc1ccc(OC)c(OC)c1 (stereo unspecified)	> 100 µM (inactive)	> 100 µM (inactive)	> 100 µM (inactive)	> 100 µM (inactive)	> 100 µM (inactive)	> 100 µM (inactive)	> 100 µM (inactive)	> 100 µM (inactive)	> 100 µM (inactive)
O=c1nc(/C=C/c2ccccc2Cl)cc2n1CCN2CCO	> 100 µM (inactive)	24.8 µM (inactive)	–	–	–	55.1 µM (inactive)	–	–	–
CCC(=O)C(C)C(=O)C(=O)C(=O)OC (stereo unspecified)	> 100 µM (inactive)	> 82.8 µM (inactive)	> 100 µM (inactive)	> 100 µM (inactive)	> 100 µM (inactive)	> 100 µM (inactive)	> 100 µM (inactive)	> 100 µM (inactive)	> 100 µM (inactive)
COc1nc2c(nc(N)n2C2OCC(O)C(O)C2O)c(=O)n1C (stereo unspecified)	> 100 µM (inactive)	> 100 µM (inactive)	–	> 100 µM (inactive)	> 100 µM (inactive)	> 100 µM (inactive)	> 100 µM (inactive)	41.8 µM (inactive)	–
CCCOc1ccc(/C(Cl)=C(\C=O)c2ccc(OC)c(OC)c2)cc1OCCC	5.71 µM (inactive)	3.07 µM (inactive)	3.72 µM (inactive)	> 100 µM (inactive)	89.7 µM (inactive)	5.74 µM (inactive)	6.07 µM (inactive)	6.93 µM (inactive)	–
COC1C(OC(=O)/C=C/C=C/C=C/C=C/C(=O)O)CCC2(CO2)C1C1(C)OC1CC=C(C)C (stereo unspecified)	26.7 µM (inactive)	19.9 µM (inactive)	32.2 µM (inactive)	23.4 µM (inactive)	32.1 µM (inactive)	–	51.8 µM (inactive)	30.8 µM (inactive)	–
COC(=O)CCSC(=O)Nc1ccc(/N=N/c2ccccc2)cc1	52.5 µM (inactive)	53.7 µM (inactive)	62.7 µM (inactive)	> 100 µM (inactive)	22.7 µM (inactive)	36.6 µM (inactive)	> 100 µM (inactive)	37.5 µM (inactive)	67.3 µM (inactive)
Brc1ccc2ns[s+]c2c1	–	3.14 µM (inactive)	1.95 µM (inactive)	> 47 µM (inactive)	0.933 µM (active)	0.404 µM (active)	> 31.6 µM (inactive)	> 100 µM (inactive)	5.06 µM (inactive)
CC1(C)OC2C(=O)OC(COCc3ccccc3)C2O1 (stereo unspecified)	> 100 µM (inactive)	–	> 100 µM (inactive)	> 100 µM (inactive)	> 100 µM (inactive)	> 100 µM (inactive)	> 100 µM (inactive)	–	> 100 µM (inactive)
CN/N=C(\C(=O)Nc1ccc(C(F)(F)F)cc1[N+](=O)[O-])C(c1cnc2ccc([N+](=O)[O-])cc2n1)[N+](=O)[O-] (stereo unspecified)	> 100 µM (inactive)	10.4 µM (inactive)	–	–	–	21.8 µM (inactive)	61.7 µM (inactive)	–	–
CC1=C(N2CC2)C(=O)C(C)=C(N2CC2)C1=O	0.21 µM (active)	0.129 µM (active)	0.0692 µM (active)	0.451 µM (active)	0.178 µM (active)	0.2 µM (active)	0.836 µM (active)	0.132 µM (active)	–
